Data reported in publication PMC6832265 (Molecules, 2019).

Experiments:
Tdp1 = target: T1, Tdp1 (Homo sapiens, UniProt Q9NUW8); assay: Real-time detection of Tdp1 activity (5'-FAM/3'-BHQ1 oligonucleotide biosensor); assay type: biochemical; details: 1.5 nM Tdp1, 50 nM oligonucleotide substrate, 26 °C
T1 construct: made in house; host or cells: Escherichia coli
Source text: We first studied the inhibition potency of our compounds to Tdp1 by using a real-time oligonucleotide biosensor assay that we have previously developed. The assay was based on the ability of Tdp1 to remove the fluorescence quencher from the 3’-end of DNA. The substrate is a 16-mer single-stranded oligonucleotide containing both a 5’-FAM fluorophore and a 3’-BHQ1 quencher.
A fluorophore quencher-coupled DNA-biosensor for real-time measurement of Tdp1 cleavage activity was recently designed in our laboratory. The biosensor is a 16-mer single-stranded oligonucleotide containing both a 5’-FAM fluorophore donor and a quenching 3’-BHQ1 moiety.
Recombinant protein Tdp1 was expressed in EsCherichia coli (pET 16B plasmid containing Tdp1 cDNA provided by Dr. K.W. Caldecott, University of Sussex, United Kingdom) and isolated as described. The reaction mixture in a final volume 200 μL contained Tdp1 reaction buffer (50 mM Tris-HCl, 50 mM NaCl, 7 mM β-mercaptoethanol), 50 nM oligonucleotide substrate, and varied concentrations of potential inhibitor. Purified Tdp1 was added in a final concentration of 1.5 nM.
The reaction mixtures were incubated at a constant temperature of 26 °C in a POLARstar OPTIMA fluorimeter, BMG LABTECH, GmbH, to measure fluorescence intensity every minute (Ex485/Em520 nm). Tdp1 inhibition was calculated by comparing the rate of increase in fluorescence of the biosensor in the presence of the compound to that of DMSO (1.5%) control wells. The measurements were carried out in at least two independent experiments. IC50 values were determined using a six-point concentration response curve. The data were imported into the MARS Data Analysis 2.0 program (BMG LABTECH) and the slope during the linear phase (data from 0 to 7 min) was calculated.

[1] = target: T2, recombinant Tdp1 (residues 149–608) (Homo sapiens, UniProt Q9NUW8); assay: Intrinsic tryptophan fluorescence quenching binding assay; details: 10 µM Tdp1, 20 mM Tris, 250 mM NaCl, pH 8; triplicate
T2 construct: recombinant Tdp1 (residues 149–608) was obtained from GenScript; host or cells: E. coli BL21(DE3)
Method: The binding of the synthesized compounds to recombinant Tdp1 was also tested (Table 1 and Table 2) by using an intrinsic tryptophan fluorescence quenching assay. […] As our compounds are aromatic in nature, there is a possibility that they may bind to both the active site as well as non-specifically to the DNA/peptide binding pockets. Nonetheless, our results confirmed that the compounds were indeed binders of Tdp1, thus complementing our inhibition data.
pET-28a(+) plasmid encoding recombinant Tdp1 (residues 149–608) was obtained from GenScript. E. coli BL21(DE3) was used for recombinant protein production. Protein production was induced with 1 mM IPTG at 28 °C with overnight incubation. Tdp1 was purified using affinity and size exclusion chromatography. Fluorescence was measured using a PerkinElmer EnSpire Multimode Reader. Tdp1 concentration was 10 μM with varying compound concentrations. The buffer was 20 mM Tris and 250 mM NaCl (pH 8). The excitation wavelength was 280 nm and intrinsic fluorescence was measured at 350 nm. Control experiments with Tdp1 or the compound on its own were also conducted. Background fluorescence arising from the compounds was subtracted from the final spectrum. The total volume per well was 30 μL. The dissociation constant (KD) was calculated using Equation (1), which takes non-specific binding into account. y = Bmaxx/(KD + x) + Nsx(1) where y denotes the changes in fluorescence intensity; x denotes the concentration of the compounds; Bmax denotes the maximum changes in fluorescence intensity; and Ns is a scaling factor for non-specific binding. Experiments were conducted in triplicate.

T1 sequence (Q9NUW8 whole entry): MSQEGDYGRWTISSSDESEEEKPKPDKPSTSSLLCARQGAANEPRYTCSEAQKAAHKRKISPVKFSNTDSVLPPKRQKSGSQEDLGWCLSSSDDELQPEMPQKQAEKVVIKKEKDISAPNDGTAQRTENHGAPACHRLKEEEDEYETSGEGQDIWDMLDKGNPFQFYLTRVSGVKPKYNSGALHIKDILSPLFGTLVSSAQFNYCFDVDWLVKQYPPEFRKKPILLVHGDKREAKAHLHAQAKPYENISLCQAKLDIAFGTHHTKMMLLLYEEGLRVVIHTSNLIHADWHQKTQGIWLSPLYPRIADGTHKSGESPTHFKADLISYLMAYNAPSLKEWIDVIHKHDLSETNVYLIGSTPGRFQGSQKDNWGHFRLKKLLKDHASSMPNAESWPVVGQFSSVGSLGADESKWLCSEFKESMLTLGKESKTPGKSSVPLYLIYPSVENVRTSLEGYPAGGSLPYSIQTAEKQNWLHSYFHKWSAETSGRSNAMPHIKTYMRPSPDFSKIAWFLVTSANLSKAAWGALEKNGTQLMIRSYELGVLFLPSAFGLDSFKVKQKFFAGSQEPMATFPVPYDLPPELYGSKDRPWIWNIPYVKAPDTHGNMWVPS
T2 sequence (Q9NUW8 149-608): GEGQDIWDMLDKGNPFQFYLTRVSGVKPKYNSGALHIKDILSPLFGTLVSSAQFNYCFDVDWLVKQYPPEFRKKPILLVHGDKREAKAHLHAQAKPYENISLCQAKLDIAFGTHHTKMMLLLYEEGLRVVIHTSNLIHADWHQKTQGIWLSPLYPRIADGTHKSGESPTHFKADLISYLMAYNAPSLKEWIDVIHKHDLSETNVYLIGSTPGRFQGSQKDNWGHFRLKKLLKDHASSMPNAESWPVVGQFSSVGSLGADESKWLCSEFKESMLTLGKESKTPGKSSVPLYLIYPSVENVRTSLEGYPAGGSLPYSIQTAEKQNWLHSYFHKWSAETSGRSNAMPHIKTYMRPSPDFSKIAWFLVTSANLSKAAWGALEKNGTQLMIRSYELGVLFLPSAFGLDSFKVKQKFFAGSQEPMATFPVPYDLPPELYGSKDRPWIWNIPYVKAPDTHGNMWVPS

| Molecule | IC50 (Tdp1) [µM] | Kd [1] [µM] |
| --- | --- | --- |
| COc1ccc(/C=N/Nc2nc(-c3c(O)c(C)c(O)c4c3OC3=CC(O)=C(C(C)=O)C(=O)[C@@]34C)cs2)cc1COc1ccc(Cl)c(C)c1 [(+)-17h, (2R)-4-Acetyl-10-{2-[(E)-2-({3-[(4-chloro-3-methylphenoxy)methyl]-4-methoxyphenyl}methylidene)hydrazin-1-yl]-1,3-thiazol-4-yl}-5,11,13-trihydroxy-2,12-dimethyl-8-oxatricyclo[7.4.0.0^2,7]trideca-1(9),4,6,10,12-pentaen-3-one] | 0.074 ± 0.001 | 188 ± 22 |
| COc1ccc(/C=N/Nc2nc(-c3c(O)c(C)c(O)c4c3OC3=CC(O)=C(C(C)=O)C(=O)[C@@]34C)cs2)cc1CN1CCN(c2ccc(F)cc2)CC1 [(+)-17i, (2R)-4-Acetyl-10-{2-[(E)-2-[(3-{[4-(4-fluorophenyl)piperazin-1-yl]methyl}-4-methoxyphenyl)methylidene]hydrazin-1-yl]-1,3-thiazol-4-yl}-5,11,13-trihydroxy-2,12-dimethyl-8-oxatricyclo[7.4.0.0^2,7]trideca-1(9),4,6,10,12-pentaen-3-one] | 0.08 ± 0.007 | 161 ± 22 |
| CC(=O)C1=C(O)C=C2Oc3c(-c4csc(N/N=C/c5cccnc5)n4)c(O)c(C)c(O)c3[C@]2(C)C1=O [(−)-16c, 3-[(1E)-(2-{4-[(1S)-12-Acetyl-3,5,11-trihydroxy-1,4-dimethyl-13-oxo-8-oxatricyclo[7.4.0.0^2,7]trideca-2(7),3,5,9,11-pentaen-6-yl]-1,3-thiazol-2-yl}hydrazin-1-ylidene)methyl]pyridin-1-ium bromide] | 0.154 ± 0.018 | 262 ± 25 |
| CC(=O)C1=C(O)C=C2Oc3c(-c4csc(N/N=C/c5cccs5)n4)c(O)c(C)c(O)c3[C@]2(C)C1=O [(−)-16g, (2S)-4-Acetyl-5,11,13-trihydroxy-2,12-dimethyl-10-{2-[(E)-2-[(thiophen-2-yl)methylidene]hydrazin-1-yl]-1,3-thiazol-4-yl}-8-oxatricyclo[7.4.0.0^2,7]trideca-1(9),4,6,10,12-pentaen-3-one] | 0.169 ± 0.006 | 281 ± 25 |
| CC(=O)C1=C(O)C=C2Oc3c(-c4csc(N/N=C/c5ccoc5)n4)c(O)c(C)c(O)c3[C@]2(C)C1=O [(−)-16l, (2S)-4-Acetyl-5,11,13-trihydroxy-2,12-dimethyl-10-{2-[(E)-2-[(furan-3-yl)methylidene] hydrazin-1-yl]-1,3-thiazol-4-yl}-8-oxatricyclo[7.4.0.0^2,7]trideca-1(9),4,6,10,12-pentaen-3-one] | 0.178 ± 0.004 | 233 ± 9 |
| CC(=O)C1=C(O)C=C2Oc3c(-c4csc(N/N=C/c5cnc[nH]5)n4)c(O)c(C)c(O)c3[C@]2(C)C1=O [(−)-16o, 5-[(1E)-(2-{4-[(1S)-12-Acetyl-3,5,11-trihydroxy-1,4-dimethyl-13-oxo-8-oxatricyclo[7.4.0.0^2,7]trideca-2(7),3,5,9,11-pentaen-6-yl]-1,3-thiazol-2-yl}hydrazin-1-ylidene)methyl]-1H-imidazol-1-ium bromide] | 0.57 ± 0.109 | 51 ± 4 |
| (2R)-4-Acetyl-5,11,13-trihydroxy-2,12-dimethyl-10-{2-[(E)-2-[(thiophen-3-yl)methylidene] hydrazin-1-yl]-1,3-thiazol-4-yl}-8-oxatricyclo[7.4.0.0^2,7]trideca-1(9),4,6,10,12-pentaen-3-one amine [(+)-16j] | 0.107 ± 0.031 | 65 ± 7 |
| (2R)-4-Acetyl-10-{2-[(E)-2-({3-[(3,4-difluorophenoxy)methyl]-4-methoxyphenyl}methylidene)hydrazin-1-yl]-1,3-thiazol-4-yl}-5,11,13-trihydroxy-2,12-dimethyl-8-oxatricyclo[7.4.0.0^2,7]trideca-1(9),4,6,10,12-pentaen-3-one [(+)-17e] | 0.064 ± 0.006 | 213 ± 4 |
| (2S)-4-Acetyl-5,11,13-trihydroxy-2,12-dimethyl-10-{2-[(E)-2-[(1H-3-methyl-indole-3-yl) methylidene]hydrazin-1-yl]-1,3-thiazol-4-yl}-8-oxatricyclo[7.4.0.0^2,7]trideca-1(9),4,6,10,12-pentaen-3-one [(−)-16q] | 0.081 ± 0.02 | 58 ± 4 |

These reach a lower IC50 (Tdp1). Values come first.

| IC50 (Tdp1) [µM] | Kd [1] [µM] | Molecule |
| --- | --- | --- |
| 0.054 ± 0.008 | 156 ± 8 | COc1ccc(/C=N/Nc2nc(-c3c(O)c(C)c(O)c4c3OC3=CC(O)=C(C(C)=O)C(=O)[C@@]34C)cs2)cc1Cn1nc(C)c([N+](=O)[O-])c1C [(+)-17k, (2R)-4-Acetyl-10-{2-[(E)-2-({3-[(3,5-dimethyl-4-nitro-1H-pyrazol-1-yl)methyl]-4-methoxyphenyl}methylidene)hydrazin-1-yl]-1,3-thiazol-4-yl}-5,11,13-trihydroxy-2,12-dimethyl-8-oxatricyclo[7.4.0.0^2,7]trideca-1(9),4,6,10,12-pentaen-3-one] |
| 0.056 ± 0.004 | 355 ± 50 | CC(=O)C1=C(O)C=C2Oc3c(-c4csc(N/N=C/c5cc(Br)cs5)n4)c(O)c(C)c(O)c3[C@]2(C)C1=O [(−)-16h, (2S)-4-Acetyl-5,11,13-trihydroxy-2,12-dimethyl-10-{2-[(E)-2-[(4-bromothiophen-2-yl)methylidene]hydrazin-1-yl]-1,3-thiazol-4-yl}-8-oxatricyclo[7.4.0.0^2,7]trideca-1(9),4,6,10,12-pentaen-3-one] |
| 0.046 ± 0.024 | 250 ± 24 | CC(=O)C1=C(O)C=C2Oc3c(-c4csc(N/N=C/c5ccco5)n4)c(O)c(C)c(O)c3[C@]2(C)C1=O [(−)-16k, (2S)-4-Acetyl-5,11,13-trihydroxy-2,12-dimethyl-10-{2-[(E)-2-[(furan-2-yl)methylidene] hydrazin-1-yl]-1,3-thiazol-4-yl}-8-oxatricyclo[7.4.0.0^2,7]trideca-1(9),4,6,10,12-pentaen-3-one] |
| 0.018 ± 0.001 | 354 ± 40 | CC(=O)C1=C(O)C=C2Oc3c(-c4csc(N/N=C/c5ccc[nH]5)n4)c(O)c(C)c(O)c3[C@]2(C)C1=O [(−)-16m, (2S)-4-Acetyl-5,11,13-trihydroxy-2,12-dimethyl-10-{2-[(E)-2-[(1H-pyrrol-2-yl)methylidene] hydrazin-1-yl]-1,3-thiazol-4-yl}-8-oxatricyclo[7.4.0.0^2,7]trideca-1(9),4,6,10,12-pentaen-3-one] |
| 0.037 ± 0.01 | 74 ± 4 | COc1ccc(/C=N/Nc2nc(-c3c(O)c(C)c(O)c4c3OC3=CC(O)=C(C(C)=O)C(=O)[C@]34C)cs2)cc1COc1ccccc1F [(−)-17c, (2S)-4-Acetyl-10-{2-[(E)-2-({3-[(2-fluorophenoxy)methyl]-4-methoxyphenyl}methylidene)hydrazin-1-yl]-1,3-thiazol-4-yl}-5,11,13-trihydroxy-2,12-dimethyl-8-oxatricyclo[7.4.0.0^2,7]trideca-1(9),4,6,10,12-pentaen-3-one] |
| 0.018 ± 0.001 | 76 ± 5 | COc1ccc(/C=N/Nc2nc(-c3c(O)c(C)c(O)c4c3OC3=CC(O)=C(C(C)=O)C(=O)[C@]34C)cs2)cc1COc1ccc(F)c(Cl)c1 [(−)-17d, (2S)-4-Acetyl-10-{2-[(E)-2-({3-[(3-chloro-4-fluorophenoxy)methyl]-4-methoxyphenyl}methylidene)hydrazin-1-yl]-1,3-thiazol-4-yl}-5,11,13-trihydroxy-2,12-dimethyl-8-oxatricyclo[7.4.0.0^2,7]trideca-1(9),4,6,10,12-pentaen-3-one] |
| 0.046 ± 0.005 | 142 ± 11 | COc1ccc(/C=N/Nc2nc(-c3c(O)c(C)c(O)c4c3OC3=CC(O)=C(C(C)=O)C(=O)[C@]34C)cs2)cc1Cn1nc(C)c([N+](=O)[O-])c1C [(−)-17k, (2S)-4-Acetyl-10-{2-[(E)-2-({3-[(3,5-dimethyl-4-nitro-1H-pyrazol-1-yl)methyl]-4-methoxyphenyl}methylidene)hydrazin-1-yl]-1,3-thiazol-4-yl}-5,11,13-trihydroxy-2,12-dimethyl-8-oxatricyclo[7.4.0.0^2,7]trideca-1(9),4,6,10,12-pentaen-3-one] |
